Test results as given in US7897397B2, “Cell fusion promoter and utilization of the same” (Kowa Company, Ltd., priority 2004, dated 2011).

System: myocardial cell/bone marrow cell co-culture system
Assay: Cell fusion in myocardial cell/bone marrow cell co-culture, fused cells (MF20- and EGFP-positive) counted by flow cytometry
Format: cell-based, rat
Description: From a 1- to 2-day-old Wistar-Kyoto rat, the heart was removed, and myocardial cells were isolated therefrom and cultured. Bone marrow mononuclear cells separated from the bone marrow of an EGFP (enhanced green fluorescent protein) transgenic rat were introduced into the myocardial cells, followed by co-culture thereof.
Flow cytometry was used to quantitatively determine the number of these fused cells. The cells were fixed with paraformaldehyde in the same manner as above, then fluorescence-immunostained in a suspended state with primary antibody MF20, a biotin-conjugated anti-mouse antibody as secondary antibody and a streptavidin/PerCP-cye5.5 conjugate as tertiary antibody, and analyzed by flow cytometry. 50,000 cells were analyzed for each analysis. […] The cells in the gate R4 in FIG. 2 (D) were confirmed to be fused cells positive to both MF20 and EGFP.
Then, according to a similar manner to that described above, ATP was added at a concentration of 0 mM (control), 1 mM, 2 mM and 3 mM respectively to the myocardial cell/bone marrow cell co-culture system, and the number of fused cells was examined. Each group at the predetermined concentration of ATP was stained in the same manner as in FIG. 2 and analyzed by flow cytometry. The results are shown in the graphs in FIGS. 3A-D.
The result is shown in the graph in FIG. 4. In FIG. 4, the ratio (%) of the number of fused cells to the total number of cells is shown on the ordinate, and the concentration of ATP (0 mM, 1 mM, 2 mM and 3 mM) is shown on the abscissa. The asterisk (*) in FIG. 4 indicates significance (p<0.05) relative to the control group. As a result, it was confirmed that only about 0.1% fused cells were formed in the control group in the absence of ATP, while about 0.5% fused cells that are about 5-times as much as in the control group were formed in the group to which 1 or 2 mM ATP had been added.
According to the method of Minamino et al. (Minamino T., Gaussin V., DeMayo F. J., et al., Circ. Res. 2001; 88:587-592), the heart was removed from a 1- to 2-day-old Wistar-Kyoto rat and myocardial cells were isolated. […]
Then, the number of the fused cells was quantitatively determined by flow cytometry. After 1 week of co-culture, the cells were treated with trypsin and fixed with paraformaldehyde in the same manner as above, fluorescence-immunostained in a suspended state with primary antibody MF20 (labeled with PerCP-cye5.5 and captured as being positive to FL-3), biotin-conjugated anti-mouse Ig's antibody (BD Pharmingen) as secondary antibody, and streptavidin/PerCP-cye5.5 conjugate (BD Pharmingen) as tertiary antibody, and analyzed by flow cytometry. 50,000 cells were analyzed for each analysis. […]

Nc1ncnc2c1ncn2[C@@H]1O[C@H](COP(=O)(O)OP(=O)(O)OP(=O)(O)O)[C@@H](O)[C@H]1O [ATP, adenosine 5′-triphosphate]
number of the fused cells compared with the control group (in words) (1 mM or 2 mM ATP added, flow cytometry, 50,000 cells analyzed): higher than in the control group | fused cells relative to the control group (times as much) (1 or 2 mM ATP added vs control in the absence of ATP): about 5 times | ratio (%) of the number of fused cells to the total number of cells (1 or 2 mM ATP added, 1 week of co-culture, control without ATP about 0.1%): about 0.5% | ratio of the number of fused cells as compared with the control group (in words) (1 or 2 mM ATP added, p<0.05 relative to the control group): increased significantly
